Measured values: patent publication US20210318306A1, “Compositions for and Methods of Neutralizing Lipopolysaccharide Toxicity and Methods of Identifying the Same” (priority 2020, published 2021)
Where “and” joins values, the source holds several entries; their conditions need not be identical. Equal entries are not always repeated. Entries after “also recorded” stand apart in the source; their conditions may differ.

Assays:
Assay type in all cases: cell-based, human
HEK-TLR4 cells = experiment: P. gingivalis LPS-induced cytokine secretion by HEK-TLR4 cells, Luminex 5-plex magnetic bead panel (Example 2)
Procedure: Commercially available HEK-Blue TLR4 cells (Invitrogen) are recombinant HEK 293 cells that have been transformed with DNA that encodes TLR4 that is expressed and present on the cell surface. HEK-Blue TLR4 cells are grown ion culture and used can be used in experimental assays to identify test compositions that modulate inflammation pathways stimulated by TLR4-LPS interaction.
Initial for LPS and zinc-containing starting solutions were made as follows. An LPS starting solution was prepared as follows: a […] solution of LPS was prepared using 2 μl of 1 mg/ml LPS and 10 ml media. Multiple zinc starting solutions were each prepared using media as diluent: a) 20 mM zinc oxide, b) 2 mM zinc oxide, c) 20 mM zinc citrate, d) 2 mM zinc citrate, e) 20 mM of a composition containing a 2:1 mixture of zinc oxide and zinc citrate and f) 2 mM of a composition containing a 2:1 mixture of zinc oxide and zinc citrate. The starting solutions were used to prepare various test samples.
In some embodiments, control assays include “Untreated”, in which eight Zinc test samples without LPS were made: […], 10 mM zinc oxide+zinc citrate, 1 mM zinc oxide+zinc citrate, 10 mM zinc oxide+zinc citrate+arginine and 1 mM zinc oxide+zinc citrate+arginine, The test samples without LPS were prepared by diluting the zinc starting solutions with equal parts media. Eight test samples with LPS were made: […], […], […], […], 10 mM zinc oxide+zinc citrate LPS, 1 mM zinc oxide+zinc citrate LPS, 10 mM zinc oxide+zinc citrate+arginine LPS and 1 mM zinc oxide+zinc citrate+arginine LPS. The test samples with LPS were prepared by diluting the zinc starting solutions with equal parts LPS starting solution.
(§1) Cells were grown to 70-80% confluent in a 96 well plate. 100 uL of a test sample was added to a well. Cells with test sample were incubated overnight. Media was collected from each well and transferred to a corresponding well in a 96-well plate. Assays to measure proinflammatory cytokines including IL-8 secretion were performed for each well.
(§2) Inflammation markers in supernatants collected from HEK-Blue cells co-incubated with Zinc and Zinc+LPS were quantified using Luminex Magpix instrument (MAGPIX-XPON42) and human 5-plex cytokine/chemokine Magnetic bead panel (Millipore HCYTOMAG-60K). The human 5-plex cytokine/chemokine Magnetic bead panel quantifies TNF-α, IL-6, IL-8, IL-1β and GM-CSF.
The Luminex Kit Procedure outlined in the instruction manual for each separate Luminex kit was performed on the supernatants collected from the HEK-Blue cells co-incubated with Zinc test solutions without LPS and Zinc test solutions plus LPS. Quality controls in range for the specified analytes were performed to ensure levels were within the acceptable range.
To run the Luminex Test, all necessary calibration and verification procedures as outlined by the MagPix and xPonent softwares were completed and the appropriate protocol for the assay was selected. The standards were verified to be correct and complete the plate layout of samples was verified. […] The “Avg. Result” was identified in the results generated.
Experiments were conducted to identify compositions that inhibit P. gingivalis LPS-induced IL-8, TNFα, GM-CSF, IL-1β and IL-6 by HEK-TLR4 cells. HEK-TLR4 cells in 96 well plates were contacted with 100 μl samples. IL-8, TNFα, GM-CSF, IL-1β and IL-6 were detected as described above.

HEK-Blue hTLR4 cells [1] = experiment: E. coli LPS- and P. gingivalis LPS-induced IL-8 by HEK-Blue hTLR4 cells (Example 3)
Procedure: as §1, §2
Experiments were conducted to identify compositions that inhibit E. coli LPS-induced IL-8 and P. gingivalis LPS-induced IL-8 by HEK-Blue hTLR4 cells. HEK-TLR4 cells in 96 well plates were contacted with 100 μl samples. IL-8 was detected as described above.

HEK-Blue hTLR4 cells [2] = experiment: IL-8 dose response in HEK-Blue hTLR4 cells with P.g. LPS 1 μg/ml and 3X-24X dilutions of simple solutions (Example 4)
Procedure: (§3) HEK-Blue hTLR4 cells (Invivogen, cat #hkb-htlr4) were cultured in a DMEM culture medium supplemented with 10% FBS and 1% penstrep at 37° C. with 5% CO2. LPS from Porphyromonas gingivalis (P.g. LPS; Invivogen, cat #tlrl-pglps and cat #tlrl-ppglps) activates TLR4 receptor and downstream inflammation in HEK-Blue hTLR4 cells. P.g. LPS is co-incubated with HEK-Blue hTLR4 cells in the absence or presence of the simple solutions. Standard and ultrapure P.g. LPS were both used due to ultrapure being a specific ligand for the TLR4 receptor while standard LPS is a ligand for both TLR2 and TLR4.
(§4) The simple solutions a) Zinc Oxide (ZnO), b) Zinc Citrate (ZnCitrate), c) Zinc Oxide+Zinc Citrate (Dual Zinc; DZ), d) Dual Zinc+Arginine (DZA, zinc oxide, zinc citrate and arginine), and e) L-Arginine (Arg) were diluted at different concentrations with culture medium.
2) experiments using 3×, 6×, 12×, and 24× dilution fold of the simple solutions (see Table 6 below).
(§5) HEK-Blue hTLR4 cells were plated in 96-well plates and grown until confluent at 37° C. and 5% CO2 in HEK-blue selection media (DMEM with 10% FBS, 1% penicillin-streptomycin, and antibiotics for HEK-blue selection (Invivogen, cat #hb-sel)). Cells were co-incubated overnight with varying concentrations of different zinc actives as well as arginine and stimulated with either 0.1 μg/mL standard P. gingivalis LPS or 1 μg/mL ultrapure P. gingivalis LPS. Cell supernatants were collected for human inflammation cytokine panels using Multiplex and ELISA analysis.
(§6) Multiplex analysis was performed using the MILLIPLEX MAP Human Cytokine/Chemokine Magnetic Bead Panel—Immunology Multiplex Assay for IL-1, IL-6, IL-8, TNFα, and GM-CSF (Millipore Sigma, cat #HCYTOMAG-60K).
In order to understand the role of Arginine in the inhibition of LPS induced inflammation, a dose response experiment was performed using ultrapure P.g. LPS, which only specifically targets TLR4 receptor, in order to maximize the activation of NF-kB and expression of IL-8.
The testing samples were prepared as the stock simple solutions. […] The first serial dilution was made 3 times with water, a dilution factor simulating dilution of toothpastes while brushing. Additional serial dilutions were made by 2-fold of the first dilution to study dose response effect.

HEK-Blue hTLR4 cells [3] = experiment: IL-8 in HEK-Blue hTLR4 cell supernatants with standard P.g. LPS and simple solutions at 1 mM vs 10 mM total zinc (Example 4)
Procedure: as §3, §4
1) experiments using 1 mM vs 10 mM total zinc; and
as §5, §6
Testing was performed using total zinc concentrations to normalize the amount the zinc applied in the cell culture medium during co-incubation. Two concentrations of total zinc ion are based on the potential amount of zinc retained on the mouth soft tissue surface.

[4] = 300 ppm with 0.1μ/ml P. gingivalis LPS
[5] = 600 ppm with 0.1μ/ml P. gingivalis LPS
[6] = P. gingivalis LPS, 300 and 600 ppm
[7] = 3X dilution of stock simple solution (Table 6) with P.g. LPS (1 μg/ml)
[8] = 6X dilution of stock simple solution (Table 6) with P.g. LPS (1 μg/ml)
[9] = 12X dilution of stock simple solution (Table 6) with P.g. LPS (1 μg/ml)
[10] = 24X dilution of stock simple solution (Table 6) with P.g. LPS (1 μg/ml)
[11] = 1 mM total zinc with standard P.g. LPS (0.1 μg/ml)
[12] = 10 mM total zinc with standard P.g. LPS (0.1 μg/ml)

SMILES: [O]=[Zn] [ZnO, zinc oxide]
- GM-CSF (raw data, single replicate) (HEK-TLR4 cells; [4]): 0.5501 pg/ml (2×) and 0.633 pg/ml and 1.577 pg/ml
- IL-1β (raw data, single replicate) (HEK-TLR4 cells; [4]): 6.491 pg/ml (2×) and 5.944 pg/ml and 6.674 pg/ml
- IL-6 (raw data, single replicate) (HEK-TLR4 cells; [4]): 3.316 pg/mL and 3.775 pg/mL and 3.171 pg/mL and 4.174 pg/mL
- IL-8 (average result) (HEK-TLR4 cells; [4]): 24200.24439257880 pg/mL
- IL-8 (raw data, single replicate) (HEK-TLR4 cells; [4]): 31890.081340469700 pg/mL and 39006.703793117100 pg/mL and 13910.330133842900 pg/mL and 11993.862302885500 pg/mL
- TNF-α (average result) (HEK-TLR4 cells; [4]): 42.3 pg/mL
- TNFα (raw data, single replicate) (HEK-TLR4 cells; [4]): 41.56 pg/mL and 39.8 pg/mL and 38.16 pg/mL and 49.7 pg/mL
- GM-CSF (raw data, single replicate) (HEK-TLR4 cells; 300 ppm, without LPS): <3.2 pg/ml (2×) and 0.3057 pg/ml and 0.5501 pg/ml
- IL-1β (raw data, single replicate) (HEK-TLR4 cells; 300 ppm, without LPS): 0.4614 pg/ml (2×) and 0.8647 pg/ml and 1.507 pg/ml
- IL-6 (raw data, single replicate) (HEK-TLR4 cells; 300 ppm, without LPS): 0.4605 pg/mL and 0.6587 pg/mL and 0.9797 pg/mL and 1.293 pg/mL
- IL-8 (average result) (HEK-TLR4 cells; 300 ppm, without LPS): 452.8 pg/mL
- IL-8 (raw data, single replicate) (HEK-TLR4 cells; 300 ppm, without LPS): 340.2 pg/mL and 393.1 pg/mL and 458.8 pg/mL and 619.1 pg/mL
- TNF-α (average result) (HEK-TLR4 cells; 300 ppm, without LPS): 1.202 pg/mL
- TNFα (raw data, single replicate) (HEK-TLR4 cells; 300 ppm, without LPS): 0.9029 pg/mL and 1.031 pg/mL and 1.244 pg/mL and 1.631 pg/mL
- GM-CSF (raw data, single replicate) (HEK-TLR4 cells; [5]): 1.142 pg/mL and 1.315 pg/mL and 0.3863 pg/mL and 0.3057 pg/mL
- IL-1β (raw data, single replicate) (HEK-TLR4 cells; [5]): 6.735 pg/mL and 6.309 pg/mL and 6.035 pg/mL and 5.701 pg/mL
- IL-6 (raw data, single replicate) (HEK-TLR4 cells; [5]): 2.617 pg/mL and 2.44 pg/mL and 1.782 pg/mL and 2.023 pg/mL
- IL-8 (average result) (HEK-TLR4 cells; [5]): 17453.90185032290 pg/mL
- IL-8 (raw data, single replicate) (HEK-TLR4 cells; [5]): 21030.114488079100 pg/mL and 14514.694724312700 pg/mL and 20392.976523123200 pg/mL and 13877.821665776500 pg/mL
- TNF-α (average result) (HEK-TLR4 cells; [5]): 26.47 pg/mL
- TNFα (raw data, single replicate) (HEK-TLR4 cells; [5]): 43.99 pg/mL and 24.75 pg/mL and 19.13 pg/mL and 18.02 pg/mL
- GM-CSF (raw data, single replicate) (HEK-TLR4 cells; 600 ppm, without LPS): 0.8854 pg/ml and 0.2263 pg/ml and 0.001671 pg/ml (2×)
- IL-1β (raw data, single replicate) (HEK-TLR4 cells; 600 ppm, without LPS): 2.871 pg/mL and 1.039 pg/mL and 0.4329 pg/mL and 0.4044 pg/mL
- IL-6 (raw data, single replicate) (HEK-TLR4 cells; 600 ppm, without LPS): 1.011 pg/ml and 0.3248 pg/ml and <3.2 pg/ml (2×)
- IL-8 (average result) (HEK-TLR4 cells; 600 ppm, without LPS): 558.8 pg/mL
- IL-8 (raw data, single replicate) (HEK-TLR4 cells; 600 ppm, without LPS): 993.3 pg/mL and 512.5 pg/mL and 355.4 pg/mL and 374 pg/mL
- TNF-α (average result) (HEK-TLR4 cells; 600 ppm, without LPS): 2.405 pg/mL
- TNFα (raw data, single replicate) (HEK-TLR4 cells; 600 ppm, without LPS): 3.729 pg/mL and 2.195 pg/mL and 1.804 pg/mL and 1.891 pg/mL
- effect on LPS-induced TNFα (in words) (HEK-TLR4 cells; [6]): reduced LPS-induced TNFα; also recorded: significantly reduced
- effect on induction of IL-8 by LPS (in words) (HEK-TLR4 cells; [6]): significantly reduced; also recorded: comparatively small effect
- IL-8 (average) (HEK-Blue hTLR4 cells [1]; 100 ppm with 1.0 μg/ml E. coli LPS): 317267829 pg/mL
- IL-8 (average) (HEK-Blue hTLR4 cells [1]; 100 ppm with 1.0 μg/ml P. gingivalis LPS): 210374063 pg/mL
- IL-8 (average) (HEK-Blue hTLR4 cells [1]; 100 ppm, without LPS): 610.1 pg/mL
- inhibitory effect on P. gingivalis LPS-induced IL-8 (in words) (HEK-Blue hTLR4 cells [1]; 500 ppm and 100 ppm): inhibitory effect
- IL-8 (average) (HEK-Blue hTLR4 cells [1]; 500 ppm with 1.0 μg/ml E. coli LPS): 564963251 pg/mL
- IL-8 (average) (HEK-Blue hTLR4 cells [1]; 500 ppm with 1.0 μg/ml P. gingivalis LPS): 275576697 pg/mL
- IL-8 (average) (HEK-Blue hTLR4 cells [1]; 500 ppm, without LPS): 448.6 pg/mL
- IL-8 Concentration, Average (HEK-Blue hTLR4 cells [2]; [7]): 29.0 pg/mL
- IL-8 Concentration, replicate (HEK-Blue hTLR4 cells [2]; [7]): 32.6 pg/mL and 25.5 pg/mL
- IL-8 Concentration, Average (HEK-Blue hTLR4 cells [2]; [8]): 510.0 pg/mL
- IL-8 Concentration, replicate (HEK-Blue hTLR4 cells [2]; [8]): 646.1 pg/mL and 374.0 pg/mL
- IL-8 Concentration, Average (HEK-Blue hTLR4 cells [2]; [9]): 2658.0 pg/mL
- IL-8 Concentration, replicate (HEK-Blue hTLR4 cells [2]; [9]): 2699.5 pg/mL and 2616.4 pg/mL
- IL-8 Concentration, Average (HEK-Blue hTLR4 cells [2]; [10]): 3015.5 pg/mL
- IL-8 Concentration, replicate (HEK-Blue hTLR4 cells [2]; [10]): 3010.4 pg/mL and 3020.6 pg/mL
- inhibition of IL-8 (in words) (HEK-Blue hTLR4 cells [2]; when dilution folds increase): lose the inhibition of IL-8 gradually
- IL-8 Concentration, Average (HEK-Blue hTLR4 cells [3]; [11]): 39.5 pg/mL
- IL-8 Concentration, replicate (HEK-Blue hTLR4 cells [3]; [11]): 42.95 pg/mL and 30.75 pg/mL and 35.45 pg/mL and 48.85 pg/mL
- IL-8 Concentration, Average (HEK-Blue hTLR4 cells [3]; [12]): 18.9 pg/mL
- IL-8 Concentration, replicate (HEK-Blue hTLR4 cells [3]; [12]): 20.35 pg/mL and 27.65 pg/mL and 10.45 pg/mL and 16.95 pg/mL
- IL-8 induced by co-incubation with P.g. LPS (in words) (HEK-Blue hTLR4 cells [3]; at both 1 mM and 10 mM): reduced
